Data set [1] can be described thus: Inhibition of dog kidney Na+,K+-ATPase by [32P]ATP hydrolysis method. On the set-up: species or system Canis lupus familiaris.
In data set [2] the test system is Cavia porcellus. The experiment in a line: […] effect in anesthetized guinea pig assessed as drug level inducing maximun increase in dP/dtmax response relative to control. It is filed as functional.
In data set [3] the test system is Cavia porcellus. The experiment in a line: […] effect in anesthetized guinea pig assessed as increase in dP/dtmax response relative to control. The class given is functional.
In data set [4] the test system is Cavia porcellus. The experiment in a line: […] effect in anesthetized guinea pig assessed as drug level inducing increase in dP/dtmax response. It is filed as functional.
The species named for data set [5] is Cavia porcellus. The experiment in a line: Ratio of toxic lethal dose to ED80 for inotropic activity in guinea pig. It is filed as functional.
Data set [6] is filed under the species Cavia porcellus. As to the kind of experiment: Toxicity in guinea pig assessed as induction of death. The class given is organism-based. Particulars: in vivo.

Turning to `C[C@]12CCC(=NO[C@@H]3CCNC3)C[C@@H]1C(=O)C[C@@H]1[C@@H]2CC[C@]2(C)C(=O)CC[C@@H]12`, the IC50 – broadly, the concentration that gives 50% inhibition – in data set [1] is 26 nM. Besides, in the data set on Cavia porcellus [2], the Activity worked out at 8.09 µmol/kg. Further, the Emax (in general, the size of the effect at its maximum, as opposed to the concentration needed) in the data set on Cavia porcellus [3] was 223%. The ED80 in the data set with Cavia porcellus [4] is 2.01 µmol/kg. Further, the Ratio in the data set listed under Cavia porcellus [5] stood at 12.

With `CC12CCC3C(CC(=O)C4CC(=NOCCN)CCC43C)C1CCC2=O` (configuration not stated), the IC50 in data set [1] is 110 nM. Also, the Activity in the data set with Cavia porcellus [2] was 5.74 µmol/kg. In addition, in the data set with Cavia porcellus [3], the Emax was determined as 182%. The ED80 in the data set with Cavia porcellus [4] amounted to 1.82 µmol/kg. The Ratio in the data set listed under Cavia porcellus [5] is recorded as 25.6.

In turn, `CCCON=C1CC[C@@]2(C)[C@H](C1)C(=O)C[C@@H]1[C@@H]2CC[C@]2(C)C(=O)CC[C@@H]12` registered an IC50 in data set [1] of 56 nM. Besides, the Activity in the data set with Cavia porcellus [2] was 6.79 µmol/kg; in the data set filed under Cavia porcellus [6] it was “Toxic”. In the data set with Cavia porcellus [3], the maximum response (Emax) is 260%. In addition, the ED80 in the data set on Cavia porcellus [4] amounted to 1.03 µmol/kg. In the data set filed under Cavia porcellus [5], the Ratio amounted to 20.8.

For the molecule `C[C@]12CC/C(=N/OC3CNC3)C[C@@H]1C(=O)C[C@@H]1[C@@H]2CC[C@]2(C)C(=O)CC[C@@H]12`, in data set [1], half-maximal inhibition (IC50) required 100 nM.

The molecule `C[C@H](N)CO/N=C1/CC[C@@]2(C)[C@H](C1)C(=O)C[C@@H]1[C@@H]2CC[C@]2(C)C(=O)CC[C@@H]12` gave a concentration for half-maximal inhibition (IC50) in data set [1] of 370 nM.

For `C[C@@H](N)CO/N=C1/CC[C@@]2(C)[C@H](C1)C(=O)C[C@@H]1[C@@H]2CC[C@]2(C)C(=O)CC[C@@H]12`, in data set [1], the half-inhibitory concentration (IC50) came out at 380 nM.

`CNCCO/N=C1/CC[C@@]2(C)[C@H](C1)C(=O)C[C@@H]1[C@@H]2CC[C@]2(C)C(=O)CC[C@@H]12` had a half-maximal inhibitory concentration (IC50) in data set [1] of 690 nM.

In the case of `CNCCCO/N=C1/CC[C@@]2(C)[C@H](C1)C(=O)C[C@@H]1[C@@H]2CC[C@]2(C)C(=O)CC[C@@H]12`, in data set [1], inhibition was half-maximal at 230 nM (IC50).

In data set [1], `CN1CC[C@H](O/N=C2/CC[C@@]3(C)[C@H](C2)C(=O)C[C@@H]2[C@@H]3CC[C@]3(C)C(=O)CC[C@@H]23)C1` returned a 50% inhibitory concentration (IC50) of 40500 nM.

Take `CN1CC[C@@H](O/N=C2/CC[C@@]3(C)[C@H](C2)C(=O)C[C@@H]2[C@@H]3CC[C@]3(C)C(=O)CC[C@@H]23)C1`: in data set [1], the IC50 came out at 1300 nM.

`C[C@]12CC/C(=N/OCCN)C[C@@H]1C(=O)C[C@@H]1[C@@H]2CC[C@]2(C)C(=O)CC[C@@H]12`: in data set [1], the 50% inhibitory concentration (IC50) came out at 630 nM. The Activity in the data set with Cavia porcellus [2] was 12.1 µmol/kg. Moreover, the Emax in the data set on Cavia porcellus [3] was 235%. The ED80 in the data set with Cavia porcellus [4] came to 3.36 µmol/kg. In addition, in the data set listed under Cavia porcellus [5], the Ratio stood at 22.5.

In data set [1], `CC(C)(N)CO/N=C1/CC[C@@]2(C)[C@H](C1)C(=O)C[C@@H]1[C@@H]2CC[C@]2(C)C(=O)CC[C@@H]12` had a half-inhibitory concentration (IC50) of 28500 nM.

As to `C[C@]12CC/C(=N/OCCCCN)C[C@@H]1C(=O)C[C@@H]1[C@@H]2CC[C@]2(C)C(=O)CC[C@@H]12`, the IC50 in data set [1] is 1800 nM.

In data set [1], `C[C@]12CC/C(=N/O[C@H]3CCNC3)C[C@@H]1C(=O)C[C@@H]1[C@@H]2CC[C@]2(C)C(=O)CC[C@@H]12` showed an IC50 of 240 nM.

For the molecule `C[C@]12CC/C(=N/O[C@@H]3CCNC3)C[C@@H]1C(=O)C[C@@H]1[C@@H]2CC[C@]2(C)C(=O)CC[C@@H]12`, the IC50 in data set [1] was 250 nM. Further, the Activity was 43.5 µmol/kg in the data set on Cavia porcellus [2] and “Non-toxic” in the data set filed under Cavia porcellus [6]. Besides, in the data set on Cavia porcellus [3], the Emax amounted to 114%. Besides, in the data set with Cavia porcellus [4], the ED80 came out at 27.7 µmol/kg. Further, the Ratio in the data set filed under Cavia porcellus [5] is recorded as over 3.6.

`CC(C)(CN)O/N=C1/CC[C@@]2(C)[C@H](C1)C(=O)C[C@@H]1[C@@H]2CC[C@]2(C)C(=O)CC[C@@H]12` displayed an IC50 in data set [1] of 21 nM.

Molecule `C[C@]12CC/C(=N\OC3CCNCC3)C[C@@H]1C(=O)C[C@@H]1[C@@H]2CC[C@]2(C)C(=O)CC[C@@H]12` displayed an IC50 in data set [1] of 1100 nM.

`C[C@]12CC/C(=N/O[C@@H]3CCNC3)C[C@@H]1[C@@H](O)C[C@@H]1[C@@H]2CC[C@]2(C)C(=O)CC[C@@H]12` gave an IC50 in data set [1] of 220 nM. Besides, in the data set with Cavia porcellus [2], the Activity came to 9.62 µmol/kg. The Emax with Cavia porcellus [3] came to 216%. Moreover, the ED80 in the data set with Cavia porcellus [4] was determined as 1.64 µmol/kg. For the same molecule, in the data set listed under Cavia porcellus [5], the Ratio is on record as 21.

In data set [1], `C[C@]12CC/C(=N/O[C@@H]3CCNC3)C[C@@H]1[C@H](O)C[C@@H]1[C@@H]2CC[C@]2(C)C(=O)CC[C@@H]12` returned an IC50 of 850 nM. Further, the Activity is 44.8 µmol/kg with Cavia porcellus [2] and “Toxic” in the data set listed under Cavia porcellus [6]. In addition, the Emax in the data set with Cavia porcellus [3] turned out to be 256%. Also, the ED80 with Cavia porcellus [4] was determined as 3.92 µmol/kg. For the same molecule, the Ratio in the data set listed under Cavia porcellus [5] is on record as 49.1.

On to `CNCCCO/N=C1/CC[C@@]2(C)[C@H](C1)C(O)C[C@@H]1[C@@H]2CC[C@]2(C)C(=O)CC[C@@H]12` (some centres not stated), for which the IC50 in data set [1] is 920 nM. In addition, the Activity in the data set with Cavia porcellus [2] was 8.95 µmol/kg; in the data set listed under Cavia porcellus [6], “Toxic”. In the data set on Cavia porcellus [3], the Emax is 77%. Also, in the data set listed under Cavia porcellus [5], the Ratio is given as under 17.

As to `C[C@]12CC/C(=N/O[C@H]3CCNC3)C[C@@H]1[C@@H](O)C[C@@H]1[C@@H]2CC[C@]2(C)C(=O)CC[C@@H]12`, the concentration for half-maximal inhibition (IC50) in data set [1] stood at 910 nM.

Molecule `C[C@]12CC/C(=N\O[C@@H]3CCNC3)C[C@@H]1C(=O)C[C@@H]1[C@@H]2CC[C@]2(C)C(=O)CC[C@@H]12` displayed an IC50 in data set [1] of 16 nM. In addition, the Activity was 2.65 µmol/kg with Cavia porcellus [2] and “Toxic” in the data set listed under Cavia porcellus [6]. In addition, in the data set with Cavia porcellus [3], the maximal effect (Emax) worked out at 186%. Besides, the ED80 in the data set with Cavia porcellus [4] turned out to be 0.75 µmol/kg. Further, the Ratio in the data set filed under Cavia porcellus [5] came out at 8.

In turn, `C[C@]12CC/C(=N/OCCNC(=N)N)C[C@@H]1C(=O)C[C@@H]1[C@@H]2CC[C@]2(C)C(=O)CC[C@@H]12` returned a 50% inhibitory concentration (IC50) in data set [1] of 12000 nM.

The molecule `C[C@]12CC/C(=N\OC[C@@H]3CCCN3)C[C@@H]1C(=O)C[C@@H]1[C@@H]2CC[C@]2(C)C(=O)CC[C@@H]12` returned an IC50 in data set [1] of 11000 nM.

As to `C[C@]12CC/C(=N\OC[C@H]3CCCN3)C[C@@H]1C(=O)C[C@@H]1[C@@H]2CC[C@]2(C)C(=O)CC[C@@H]12`, in data set [1], inhibition was half-maximal at 23000 nM (IC50).

`C[C@]12CC/C(=N\OC3CCCNC3)C[C@@H]1C(=O)C[C@@H]1[C@@H]2CC[C@]2(C)C(=O)CC[C@@H]12` (mixture of isomers) had an IC50 in data set [1] of 33000 nM.

In data set [1], `C[C@H]1O[C@@H](O[C@H]2[C@@H](O)C[C@H](O[C@H]3[C@@H](O)C[C@H](O[C@H]4CC[C@@]5(C)[C@H](CC[C@@H]6[C@@H]5C[C@@H](O)[C@]5(C)[C@@H](C7=CC(=O)OC7)CC[C@]65O)C4)O[C@@H]3C)O[C@@H]2C)C[C@H](O)[C@@H]1O` [DIGOXIN] returned a concentration for half-maximal inhibition (IC50) of 220 nM. The Activity was 0.97 µmol/kg with Cavia porcellus [2] and “Toxic” in the data set listed under Cavia porcellus [6]. In addition, the Emax in the data set on Cavia porcellus [3] was determined as 127%. In the data set on Cavia porcellus [4], the ED80 is 0.41 µmol/kg. In the data set filed under Cavia porcellus [5], the Ratio was 3.2.

The record behind these values is ChEMBL document CHEMBL1155894, “Novel analogues of istaroxime, a potent inhibitor of Na+,K+-ATPase: synthesis and structure-activity relationship” (J Med Chem, 2008).
